Measurements reported in BindingDB's records for patent US9718819 (Merck Sharp & Dohme, 2017).

Target: Gag-Pol polyprotein (Human immunodeficiency virus type 1 group M subtype B (isolate HXB2), UniProt P04585)
Assay: HIV-1 Reverse Transcriptase Inhibitory Assay
Details: pH 7.8; 25 °C
Excerpt: The heterodimeric nucleic acid substrate used in the HIV-1 RT polymerase reactions was generated by annealing the DNA primer, biotinylated pD500 (Sigma Aldrich, USA, 5′-biotin-ttg aaa tga ctg cgg tac ggc-3′), SEQ ID NO. 1 to the nucleotide RNA template t500 (derived from hepatitis C virus [HCV] sequence, IBA, Germany, 5′-GAGGUUCAGGUGGUUUCCACCGCAACACAAUCCUUCCUGGCGACCUGCGUCAACGGCGUGUGUUGGACCGUUUACCAUGGUGCUGGCUCAAAGACCUUAGCCGGCCCAAAGGGGCCAAUCACCCAGAUGUACACUAAUGUGGACCAGGACCUCGUCGGCUGGCAGGCGCCCCCCGGGGCGCGUUCCUUGACACCAUGCACCUGUGGCAGCUCAGACCUUUACUUGGUCACGAGACAUGCUGACGUCAUUCCGGUGCGCCGGCGGGGCGACAGUAGGGGGAGCCUGCUCUCCCCCAGGCCUGUCUCCUACUUGAAGGGCUCUUCGGGUGGUCCACUGCUCUGCCCUUCGGGGCACGCUGUGGGCAUCUUCCGGGCUGCCGUAUGCACCCGGGGGGUUGCGAAGGCGGUGGACUUUGUGCCCGUAGAGUCCAUGGAAACUACUAUGCGGUCUCCGGUCUUCACGGACAACUCAUCCCCCCCGGCCGUACCGCAGUCAUUUCAA-3′), SEQ ID NO 2). […] The mixture was then preincubated on an orbital shaker for 30 min at room temperature in microtiter plates (Costar 3365, Corning, USA). A polymerization reaction was initiated by the addition of RNA template/pD500 DNA primer hybrid (16.6 nM final of RNA/DNA hybrid) and dNTPs (2 μM dATP, dGTP, dCTP and 66.6 nM Ru-dUTP (Meso Scale Discovery, USA)). Plate was sealed and incubated for 5-10 min at room temperature on an orbital shaker. Plate was then incubated for 90 min at 37° C. and reactions quenched with 60 μl quenching buffer (50 mM EDTA, 0.7% BSA, 0.7% Tween-20, 0.017% sodium azide in PBS). The resulting solution was incubated at room temperature for an additional 5 min and then 50 μL was transferred to pre-blocked Avidin plates (L15AA, Meso Scale Discovery). Each well of Avidin plate was blocked for 1 h at room temperature with 100 μL 5% BSA in PBS. Blocking solution was removed by tapping vigorously on filter paper to remove all excess liquid. Reaction on pre-blocked avidin plate proceeded for 60 min at room temperature and then contents removed by tapping vigorously on filter paper to remove all excess liquid. After washing plate 3 times with 150 μL 1×PBS and blotting dry between cycles, 150 μL 1× Read Buffer T (4× Read Buffer T, Meso Scale Discovery) was added and incubated for 5 min at room temperature before counting on a Sector Imager […] (Meso Scale Discovery). Titration curves and IC50 values were calculated using a four parameter logisitc fit according to standard procedures. Briefly, % Inhibition=100×((sample raw value)−(mean value of the low control or 0% inhibition))/((mean value of wells representing 100% inhbition)−(mean value of 0% inhbition)). […]

SMILES: COc1cc(-c2cc(Cn3cnc(C(F)(F)F)c(Oc4cc(Cl)cc(C#N)c4)c3=O)n[nH]c2=O)ccn1 [US9718819, 79]
- IC50: 6 nM

SMILES: Cc1cncc(-c2cc(Cn3cnc(C(F)(F)F)c(Oc4cc(Cl)cc(C#N)c4)c3=O)n[nH]c2=O)c1 [US9718819, 80]
- IC50: 14 nM

SMILES: N#Cc1cc(Cl)cc(Oc2c(C(F)(F)F)ncn(Cc3cc(-c4cn[nH]c4)n[nH]c3=O)c2=O)c1 [US9718819, 118]
- IC50: 7 nM

SMILES: Cn1[nH]c(=O)c(Cn2cnc(C(F)(F)F)c(Oc3cc(Cl)cc(C#N)c3)c2=O)cc1=O [US9718819, 127]
- IC50: 434 nM
